Experimental data reported in patent US20250101017A1, “SALT CRYSTAL FORM AND FREE BASE CRYSTAL FORM OF KINASE INHIBITOR” (CYTOSINLAB THERAPEUTICS CO., LTD., priority 2022, published 2025).
Converted amounts (≈) assume the structure as drawn.

How the values were obtained:
Format in all cases: physicochemical
[1] = Solubility of crystal form Form T in different solutions at 37° C. (about 60 mg in 2 mL, 2 h and 24 h; HPLC, pH, XRPD)
Method: Approximately 60 mg of the sample was weighed and added into a 4 mL bottle, and 2 mL of different solvents (water, pH 1.0, 3.0, 5.0, 7.0, 9.0, FaSSIF, FeSSIF, and SGF) were added and the mixtures were stirred at 37° C. for 24 h after adding magnetic stirring bar. Samples were taken at 2 and 24 h respectively. After filtration, the sample concentration in the filtrate was tested by HPLC, and the pH value of the filtrate and the XRPD of the remaining solid were also measured. The measured solubility of the sample in different solutions was as follows.

[2] = Solid stability of crystal forms (80° C., light exposure, 25° C./60% RH, 40° C./75% RH); purity by liquid chromatography and XRPD of the solids; details: for Crystal form: XRPD
Method: A certain amount of API and malate crystal form VII-A were weighed and added into a liquid phase vial, and a total of 9 parallels were prepared. The 9 parallels were placed separately in 80° C. (open); 25° C., 60% RH (open); 40° C., 75% RH (open); and light stability box closed). The stabilities under conditions of: 80° C. for one day, light exposure for 10 days, as well as 25° C., 60% RH and 40° C., 75% RH for one and two weeks were tested, and the XRPD of the solids were measured.
A certain amount of crystal form B was weighed and added into a liquid phase vial, and a total of 9 parallels were prepared. 9 parallels were placed separately in 80° C.; 25° C., 60% RH, 40° C., 75% RH; and light stability boxe.

[3] = Solubility at 37° C. in buffer solutions with different pH (about 10 mg in 1 ml, 2 h and 24 h); filtrate concentration and pH, XRPD of remaining solid; details: for solubility at 2 h / solubility at 24 h: 37 °C, thermodynamic from solid; for solubility at 2 h: read-out: Solubility at 37° C. (mg/ml) 2 h; for solubility at 24 h: read-out: Solubility at 37° C. (mg/ml) 24 h; for pH (24 h): filtrate
Method: Approximately 10 mg of malate crystal form VII-A and free base Form A were weighed separately, and 1 ml of buffer solutions with different pH were added to make the solution supersaturated, and the mixtures were stirred at 37° C. for 2 h and 24 hours. The samples were filtered, and the filtrates were measured to determine the concentration and pH value, and the remaining solid was subjected to XRPD determination. The specific results were as follows: […]

Question: For `CCc1nc2c(N)ncc(-c3ccc(N4CCC(N5CCN(CC)CC5)CC4)c(OC)c3)c2nc1NC1CCOCC1` [Form T, 3-ethyl-8-(4-(4-(4-ethylpiperazin-1-yl)piperidin-1-yl)-3-methoxyphenyl)-N2-(tetrahydro-2H-pyran-4-yl) pyridino [3,4-b]pyrazine-2,5-diamine], which pH ([1]; FaSSIF, filtrate, 2 h) is on record?
Answer: 6.72

Question: And the pH ([1]; FaSSIF, filtrate, 24 h)?
Answer: 6.73

Question: And the pH ([1]; FeSSIF, filtrate, 2 h)?
Answer: 6.50

Question: And the pH ([1]; FeSSIF, filtrate, 24 h)?
Answer: 6.50

Question: What about the pH ([1]; SGF, filtrate, 2 h) of the same compound?
Answer: 6.20

Question: What about the pH ([1]; SGF, filtrate, 24 h) of the same compound?
Answer: 6.22

Question: What about the “pH of the solution compared to the initial pH value” ([1]; other solvents (water, pH 7.0, pH 9.0, FaSSIF)) of the same compound?
Answer: did not change significantly

Question: What about the “crystal form of remaining solid” value ([1]; other solvents (water, pH 7.0, pH 9.0, FaSSIF), XRPD) of the same compound?
Answer: did not change

Question: What about the pH ([1]; pH 1.0, filtrate, 2 h) of the same compound?
Answer: 5.13

Question: What about the pH ([1]; pH 1.0, filtrate, 24 h) of the same compound?
Answer: 5.17

Question: And the “pH of the filtrate compared to the initial pH value of the buffer solution” value ([1]; pH 1.0, pH 3.0, pH 5.0, FeSSIF, and SGF)?
Answer: significant changes

Question: What about the solubility at 2 h ([1]; pH 1.0 solution, simulated gastric fluid, thermodynamic from solid, pH 1.0, 37° C., 2 h) of the same compound?
Answer: 28000 µg/mL (≈ 48.7 mM)

Question: What about the solubility at 24 h ([1]; pH 1.0 solution, simulated gastric fluid, thermodynamic from solid, pH 1.0, 37° C., 24 h) of the same compound?
Answer: 29300 µg/mL (≈ 51 mM)

Question: And the pH ([1]; pH 3.0, filtrate, 2 h)?
Answer: 6.51

Question: And the pH ([1]; pH 3.0, filtrate, 24 h)?
Answer: 6.52

Question: What about the solubility at 2 h ([1]; pH 3.0 solution, aqueous buffer, thermodynamic from solid, pH 3.0, 37° C., 2 h) of the same compound?
Answer: 23100 µg/mL (≈ 40.2 mM)

Question: What about the solubility at 24 h ([1]; pH 3.0 solution, aqueous buffer, thermodynamic from solid, pH 3.0, 37° C., 24 h) of the same compound?
Answer: 23200 µg/mL (≈ 40.4 mM)

Question: What about the pH ([1]; pH 5.0, filtrate, 2 h) of the same compound?
Answer: 6.66

Question: And the pH ([1]; pH 5.0, filtrate, 24 h)?
Answer: 6.67

Question: And the solubility ([1]; pH 5.0 solution, aqueous buffer, thermodynamic from solid, 37° C., pH 5.0)?
Answer: ~8000 µg/mL (≈ 13.9 mM)

Question: What about the solubility at 2 h ([1]; pH 5.0 solution, aqueous buffer, thermodynamic from solid, pH 5.0, 37° C., 2 h) of the same compound?
Answer: 8370 µg/mL (≈ 14.6 mM)

Question: And the solubility at 24 h ([1]; pH 5.0 solution, aqueous buffer, thermodynamic from solid, pH 5.0, 37° C., 24 h)?
Answer: 8170 µg/mL (≈ 14.2 mM)

Question: What about the pH ([1]; pH 7.0, filtrate, 2 h) of the same compound?
Answer: 6.99

Question: And the pH ([1]; pH 7.0, filtrate, 24 h)?
Answer: 6.98

Question: What about the solubility at 2 h ([1]; pH 7.0 solution, aqueous buffer, thermodynamic from solid, pH 7.0, 37° C., 2 h) of the same compound?
Answer: 60 µg/mL (≈ 0.104 mM)

Question: And the solubility at 24 h ([1]; pH 7.0 solution, aqueous buffer, thermodynamic from solid, pH 7.0, 37° C., 24 h)?
Answer: 60 µg/mL (≈ 0.104 mM)

Question: And the pH ([1]; pH 9.0, filtrate, 2 h)?
Answer: 8.77

Question: And the pH ([1]; pH 9.0, filtrate, 24 h)?
Answer: 8.79

Question: And the solubility at 2 h ([1]; pH 9.0 solution, aqueous buffer, thermodynamic from solid, pH 9.0, 37° C., 2 h)?
Answer: 2 µg/mL (≈ 0.00348 mM)

Question: And the solubility at 24 h ([1]; pH 9.0 solution, aqueous buffer, thermodynamic from solid, pH 9.0, 37° C., 24 h)?
Answer: 2 µg/mL (≈ 0.00348 mM)

Question: And the solubility at 2 h ([1]; simulated gastric fluid, thermodynamic from solid, SGF, 37° C., 2 h)?
Answer: 27600 µg/mL (≈ 48.1 mM)

Question: What about the solubility at 24 h ([1]; simulated gastric fluid, thermodynamic from solid, SGF, 37° C., 24 h) of the same compound?
Answer: 27300 µg/mL (≈ 47.5 mM)

Question: And the solubility ([1]; solutions: pH 1.0, thermodynamic from solid, 37° C., pH 1.0, pH 3.0, FeSSIF, and SGF)?
Answer: > 18000 µg/mL

Question: And the solubility ([1]; thermodynamic from solid, 37° C., water, pH 7.0, pH 9.0, and FaSSIF)?
Answer: < 700 µg/mL

Question: And the solubility at 2 h ([1]; thermodynamic from solid, FaSSIF, 37° C., 2 h)?
Answer: 670 µg/mL (≈ 1.17 mM)

Question: What about the solubility at 24 h ([1]; thermodynamic from solid, FaSSIF, 37° C., 24 h) of the same compound?
Answer: 700 µg/mL (≈ 1.22 mM)

Question: And the solubility at 2 h ([1]; thermodynamic from solid, FeSSIF, 37° C., 2 h)?
Answer: 18900 µg/mL (≈ 32.9 mM)

Question: And the solubility at 24 h ([1]; thermodynamic from solid, FeSSIF, 37° C., 24 h)?
Answer: 18700 µg/mL (≈ 32.5 mM)

Question: And the solubility at 2 h ([1]; thermodynamic from solid, water, 37° C., 2 h)?
Answer: 2 µg/mL (≈ 0.00348 mM)

Question: And the solubility at 24 h ([1]; thermodynamic from solid, water, 37° C., 24 h)?
Answer: 3 µg/mL (≈ 0.00522 mM)

Question: What about the pH ([1]; water, filtrate, 2 h) of the same compound?
Answer: 7.20

Question: And the pH ([1]; water, filtrate, 24 h)?
Answer: 7.12

Question: What does the source list for `CCc1nc2c(N)ncc(-c3ccc(N4CCC(N5CCN(CC)CC5)CC4)c(OC)c3)c2nc1NC1CCOCC1` [Malate crystal form VII-A]?
Answer: Degradation (%) ([2]; 25° C., 60% RH (open), 1 week): 0.03%; Purity (%) ([2]; 25° C., 60% RH (open), 1 week): 95.81%; Crystal form ([2]; 25° C., 60% RH (open), 1 week): Unchanged; Degradation (%) ([2]; 25° C., 60% RH (open), 2 weeks): 0.32%; Purity (%) ([2]; 25° C., 60% RH (open), 2 weeks): 95.52%; Crystal form ([2]; 25° C., 60% RH (open), 2 weeks): Unchanged; Degradation (%) ([2]; 40° C., 75% RH (open), 1 week): 0.13%; Purity (%) ([2]; 40° C., 75% RH (open), 1 week): 95.71%; Crystal form ([2]; 40° C., 75% RH (open), 1 week): Unchanged; Degradation (%) ([2]; 40° C., 75% RH (open), 2 weeks): 1.06%; Purity (%) ([2]; 40° C., 75% RH (open), 2 weeks): 94.78%; Crystal form ([2]; 40° C., 75% RH (open), 2 weeks): Unchanged; Degradation (%) ([2]; 80° C. (open), 1 day): 0.62%; Purity (%) ([2]; 80° C. (open), 1 day): 95.22%; Crystal form ([2]; 80° C. (open), 1 day): Unchanged; Degradation (%) ([2]; Light contral, 10 days): 0.05%; Purity (%) ([2]; Light contral, 10 days): 95.79%; Crystal form ([2]; Light contral, 10 days): Unchanged; Degradation (%) ([2]; Light exposure, 10 days): 6.67%; Purity (%) ([2]; Light exposure, 10 days): 89.17%; Crystal form ([2]; Light exposure, 10 days): Unchanged; Purity (%) ([2]; initial): 95.84%; Degradation ([2]; light exposure and 40° C., 75% RH): varying degrees of degradation; solubility at 2 h ([3]; FeSSIF, fessif, medium FeSSIF, 2 h): > 10 mg/mL; solubility at 24 h ([3]; FeSSIF, fessif, medium FeSSIF, 24 h): > 10 mg/mL; solubility at 2 h ([3]; SGF, simulated gastric fluid, medium SGF, 2 h): > 10 mg/mL; solubility at 24 h ([3]; SGF, simulated gastric fluid, medium SGF, 24 h): > 10 mg/mL; pH (24 h) ([3]; medium FaSSIF): 6.524; pH (24 h) ([3]; medium FeSSIF): 5.796; pH (24 h) ([3]; medium H2O): 7.026; pH (24 h) ([3]; medium SGF): 1.644; pH (24 h) ([3]; medium pH 1.2): 1.605; pH (24 h) ([3]; medium pH 3.0): 4.601; pH (24 h) ([3]; medium pH 4.5): 5.468; pH (24 h) ([3]; medium pH 6.8): 6.775; pH (24 h) ([3]; medium pH 7.4): 7.389; Solubility at 37° C. (mg/ml) 2 h ([3]; medium FaSSIF, 2 h): >10 mg/mL; Solubility at 37° C. (mg/ml) 24 h ([3]; medium FaSSIF, 24 h): >10 mg/mL; Solubility at 37° C. (mg/ml) 2 h ([3]; medium H2O, 2 h): >10 mg/mL; Solubility at 37° C. (mg/ml) 24 h ([3]; medium H2O, 24 h): >10 mg/mL; Solubility at 37° C. (mg/ml) 2 h ([3]; medium pH 1.2, 2 h): >10 mg/mL; Solubility at 37° C. (mg/ml) 24 h ([3]; medium pH 1.2, 24 h): >10 mg/mL; Solubility at 37° C. (mg/ml) 2 h ([3]; medium pH 3.0, 2 h): >10 mg/mL; Solubility at 37° C. (mg/ml) 24 h ([3]; medium pH 3.0, 24 h): >10 mg/mL; Solubility at 37° C. (mg/ml) 2 h ([3]; medium pH 4.5, 2 h): >10 mg/mL; Solubility at 37° C. (mg/ml) 24 h ([3]; medium pH 4.5, 24 h): >10 mg/mL; Solubility at 37° C. (mg/ml) 2 h ([3]; medium pH 6.8, 2 h): >10 mg/mL; Solubility at 37° C. (mg/ml) 24 h ([3]; medium pH 6.8, 24 h): >10 mg/mL; Solubility at 37° C. (mg/ml) 2 h ([3]; medium pH 7.4, 2 h): >10 mg/mL; Solubility at 37° C. (mg/ml) 24 h ([3]; medium pH 7.4, 24 h): >10 mg/mL
